In patent US20110092524A1, “Agent for Enhancing Corneal Epithelial Barrier Function” (SANTEN PHARMACEUTICAL CO., LTD., priority 2008, published 2011):
Like-named read-outs stand apart in the source and are kept apart here.

What was measured:
[1] = tested on: SV40-immortalized human corneal epithelial cells (HCE-T); assay: Enhancing effect of PPARγ agonist on barrier function (membrane electrical resistance of corneal epithelial cell layer); assay type: cell-based; details: for Membrane electrical resistance: five days after seeding, average of four experiments, base culture 296.0
Description: The PPARγ agonist was evaluated with respect to the enhancing effect on the barrier function of a corneal epithelial cell. For the corneal epithelial cell, an SV40-immortalized human corneal epithelial cell line was used, utilizing a membrane electrical resistance as an index of the barrier function. When the bather function of the corneal epithelial cell is enhanced, the membrane electrical resistance increases, while the bather function is reduced, the membrane electrical resistance decreases.
From RIKEN BioResource Center, SV40-immortalized human corneal epithelial cells (HCE-T) were obtained. […] As the culture medium, a DMEM/Ham's F12 (Nacalai Tesque, Inc.) containing 15% fetal bovine serum (ICN) and 40 μg/mL of gentamicin (Gibco) was used. […] The concentration mentioned above was attained by dissolving each sample in DMSO and diluting 1,000-fold with the culture medium. In addition, a culture medium containing DMSO alone was used as a base culture medium.
(§1) Five days after the seeding, an electrical resistance of an epithelial cell layer was measured using a membrane electrical resistance measurement system (World Precision Instruments). A well containing the base medium alone with no corneal epithelial cell seeded was measured as a blank, and the value was subtracted from the electrical resistance of the epithelial cell layer. The resultant value was multiplied by an area of the cell culture (0.33 cm^2), to thereby obtain an electrical resistance (Ω·cm^2) per unit area.

[2] = tested on: SV40-immortalized human corneal epithelial cells (HCE-T); assay: Influence of PPARγ antagonist on barrier function enhancing effect of PPARγ agonist (membrane electrical resistance); assay type: cell-based; details: for Membrane electrical resistance: five days after seeding, average of four experiments, base culture 434.1
Description: An influence of the PPARγ antagonist was evaluated with respect to the barrier function enhancing effect of the PPARγ agonist, and it was examined whether or not the enhancing effect on the barrier function is based on the activity of the PPARγ agonist.
From RIKEN BioResource Center, SV40-immortalized human corneal epithelial cells (HCE-T) were obtained. On a culture insert of 24-well Transwell Clear (Corning Incorporated) were seeded 6.4×10^4 cells of HCE-T, and incubated at 37° C. in 5% CO2. As the culture medium, a DMEM/Ham's F12 (Nacalai Tesque, Inc.) containing 15% fetal bovine serum (ICN) and 40 μg/mL of gentamicin (Gibco) was used. The culture medium was removed after 9 hours, 2 days, 3 days and 4 days, and replaced with a culture medium containing the PPARγ agonist and the PPARγ antagonist to thereby obtain samples. As the PPARγ agonist, rivoglitazone [0.1 μM] was used, and as the PPARγ antagonist, 2-chloro-5-nitrobenzanilide (GW-9662) [0.03 μM, 0.1 μM] was used. The concentrations mentioned above were attained by dissolving each sample in DMSO and diluting 1,000-fold with the culture medium. In addition, a culture containing DMSO alone was used as a base culture medium.
as §1, with “obtaining” for “obtain”

CN(CCOc1ccc(CC2SC(=O)NC2=O)cc1)c1ccccn1 (centres unmarked) [Rosiglitazone, 5-[p-[2-(methyl-2-pyridylamino)ethoxy]benzyl]-2,4-thiazolidinedione]
Membrane electrical resistance ([1]; sample 10 μM, HCE-T): 343.2 Ω · cm^2

COc1ccc(OC(=O)N(CC(=O)O)Cc2ccc(OCCc3nc(-c4ccccc4)oc3C)cc2)cc1 [BMS-298585, N-[(4-methoxyphenoxy)carbonyl]-N-[[4-[2-(5-methyl-2-phenyl-4-oxazolyl)ethoxy]phenyl]methyl]glycine]
barrier function enhancing effect (in words) [1]: excellent barrier function enhancing effect

CCc1ccc(CCOc2ccc(CC3SC(=O)NC3=O)cc2)nc1 (centres unmarked) [Pioglitazone, 5-[[4-[2-(5-ethyl-2-pyridinyl)ethoxy]phenyl]methyl]-2,4-thiazolidinedione]
Membrane electrical resistance ([1]; sample 10 μM, HCE-T): 350.3 Ω · cm^2

C/C(=C/C(=O)c1ccccc1)N[C@@H](Cc1ccc(OCCc2nc(-c3ccccc3)oc2C)cc1)C(=O)O [GW-544, N-[1-methyl-3-oxo-3-phenyl-1(Z)-propenyl]-O-[2-(5-methyl-2-phenyloxazol-4-yl)ethyl]-L-tyrosine]
barrier function enhancing effect (in words) [1]: excellent barrier function enhancing effect

O=C(Nc1ccccc1)c1cc([N+](=O)[O-])ccc1Cl [GW-9662, 2-chloro-5-nitrobenzanilide]
antagonism of the barrier function enhanced by rivoglitazone (in words) ([2]; GW-9662 0.03 μM and 0.1 μM with rivoglitazone 0.1 μM): concentration-dependently reduced
antagonism of the barrier function enhanced by rivoglitazone (in words) ([2]; GW-9662 at 0.1 μM with rivoglitazone 0.1 μM): completely antagonized

COc1ccc2nc(COc3ccc(CC4SC(=O)NC4=O)cc3)n(C)c2c1 (centres unmarked) [Rivoglitazone, 5-[4-(6-methoxy-1-methyl-1H-benzimidazol-2-ylmethoxy)benzyl]thiazolidine-2,4-dione]
Membrane electrical resistance ([2]; rivoglitazone 0.1 μM alone): 538.8 Ω · cm^2
Membrane electrical resistance ([2]; rivoglitazone 0.1 μM and GW-9662 0.03 μM): 473.5 Ω · cm^2
Membrane electrical resistance ([2]; rivoglitazone 0.1 μM and GW-9662 0.1 μM): 429.3 Ω · cm^2
barrier function enhancing effect (in words) ([1]; sample 10 μM, HCE-T, compared with base culture medium): extremely strong barrier function enhancing effect
Membrane electrical resistance ([1]; sample 10 μM, HCE-T): 615.9 Ω · cm^2
